# Measurements reported in patent US10829484B2, “Compounds and methods for kinase modulation, and indications therefor” (Plexxikon Inc., priority 2015, dated 2020).
# Molecular target: T1, BaF3-FLT3-ITD-D835V (Homo sapiens, UniProt P36888, INS600HVDFREYEYD/D835V, cells depend on it)
# T1 sequence (P36888 with tags, fused parts or gaps INS600HVDFREYEYD/D835V): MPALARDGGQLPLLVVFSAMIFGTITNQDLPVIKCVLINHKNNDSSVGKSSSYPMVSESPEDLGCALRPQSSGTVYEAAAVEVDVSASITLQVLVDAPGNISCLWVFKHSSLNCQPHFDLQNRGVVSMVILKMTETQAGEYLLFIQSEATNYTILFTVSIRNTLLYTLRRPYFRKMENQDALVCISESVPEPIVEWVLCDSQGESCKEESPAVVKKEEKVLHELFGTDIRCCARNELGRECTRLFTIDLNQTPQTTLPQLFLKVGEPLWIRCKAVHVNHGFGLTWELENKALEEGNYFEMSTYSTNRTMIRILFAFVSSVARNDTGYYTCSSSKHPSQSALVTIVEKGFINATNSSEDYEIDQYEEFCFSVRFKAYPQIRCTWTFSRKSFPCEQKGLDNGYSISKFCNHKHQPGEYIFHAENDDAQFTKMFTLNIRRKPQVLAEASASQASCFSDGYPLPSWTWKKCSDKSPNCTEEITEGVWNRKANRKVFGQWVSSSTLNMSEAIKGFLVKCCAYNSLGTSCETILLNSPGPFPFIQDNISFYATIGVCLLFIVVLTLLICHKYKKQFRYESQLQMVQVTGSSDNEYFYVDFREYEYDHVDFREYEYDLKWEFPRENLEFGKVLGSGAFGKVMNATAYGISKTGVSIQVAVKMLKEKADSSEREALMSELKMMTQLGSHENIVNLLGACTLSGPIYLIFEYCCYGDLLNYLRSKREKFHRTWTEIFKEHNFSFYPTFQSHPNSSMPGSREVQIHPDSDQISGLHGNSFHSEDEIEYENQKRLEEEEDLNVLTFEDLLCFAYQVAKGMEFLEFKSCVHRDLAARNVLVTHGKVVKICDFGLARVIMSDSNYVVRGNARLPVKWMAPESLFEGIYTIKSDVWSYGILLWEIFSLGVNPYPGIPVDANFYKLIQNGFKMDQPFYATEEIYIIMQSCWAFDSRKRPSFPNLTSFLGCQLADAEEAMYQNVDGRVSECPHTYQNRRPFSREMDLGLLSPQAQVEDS
# Assay: CTB viability assay CS0048, BaF3-FLT3-ITD-D835V
# Assay type: cell-based, murine
# Conditions: BaF3-FLT3-ITD-D835V cells, CellTiter Blue viability, 72 hours; read-out: Cell Assay: CS0048: BaF3-FLT3-ITD-D835V CTB:IC50
# Description: Gene constructs containing the human FLT3 sequences FLT3-ITD, FLT3-ITD-F691L, FLT3-ITD-D835V and FLT3-D835V were synthesized by reverse translation of the human protein sequences, with codons optimized for mammalian expression. Sequence of the internal tandem duplication (ITD) was based on the MV4-11 ITD sequence. Synthetic DNA constructs were cloned into the pMSCV puro retroviral vector (Clontech) and transfected into the EcoPack2-293 packaging cell line (Clontech) to generate retroviruses that contain the different FLT3 constructs. Viruses were transduced into the IL-3-dependent, murine […] cell line, Ba/F3, and selected for puromycin resistance and IL-3 independence. All cell lines were cloned by limiting dilution and clones were used for all subsequent cell assays. Overexpression of the FLT3 mutants in the Ba/F3 cells results in constitutive phosphorylation of the exogenous FLT3 protein, which is required for IL-3 independence.
# Cell lines were serum starved overnight in media containing 0.5% FBS, plated at 15,000 cells/well in 96-well white-walled tissue culture plates, and 3-fold serial dilutions of test compounds of Formula I were added for 72 hours at 37° C. CellTiter Blue (CTB, Promega) was added and incubated for an additional 3 hours at 37° C. Fluorescence was read at 560 nm excitation, 590 nm emission. Wells with CTB+media only were used for background subtraction, and the fluorescence of compound-treated cells was normalized to the fluorescence of DMSO-treated cells. IC50s were determined using Igor Pro software. All compounds are assayed in duplicate cell plates.
row,Structure (SMILES),GI50
1,"O=C(Cc1ccc(-c2ccc(Nc3ccccc3)nc2)cc1F)Nc1cc(C2(C(F)(F)F)CC2)on1 [P-003, 2-[4-(6-anilino-3-pyridyl)-2-fluoro-phenyl]-N-[5-[1-(trifluoromethyl)cyclopropyl]isoxazol-3-yl]acetamide]",10 to 50 nM
2,"Cn1nccc1Nc1ncc(-c2ccc(CC(=O)Nc3cc(C4(C(F)(F)F)CC4)on3)c(F)c2)cn1 [P-091, 2-[2-fluoro-4-[2-[(2-methylpyrazol-3-yl)amino]pyrimidin-5-yl]phenyl]-N-[5-[1-(trifluoromethyl)cyclopropyl]isoxazol-3-yl]acetamide]",10 to 50 nM
3,"Cn1cc(Nc2ncc(-c3ccc(CC(=O)Nc4cc(C5(C(F)(F)F)CC5)on4)c(F)c3)cn2)c(C(F)(F)F)n1 [P-077, 2-[2-fluoro-4-[2-[[1-methyl-3-(trifluoromethyl)pyrazol-4-yl]amino]pyrimidin-5-yl]phenyl]-N-[5-[1-(trifluoromethyl)cyclopropyl]isoxazol-3-yl]acetamide]",10 to 50 nM
4,"O=C(Cc1ccc(-c2cnc(Nc3ccccc3)cn2)cc1F)Nc1cc(C2(C(F)(F)F)CC2)on1 [P-005, 2-[4-(5-anilinopyrazin-2-yl)-2-fluorophenyl]-N-[5-[1-(trifluoromethyl)cyclopropyl]isoxazol-3-yl]acetamide]",10 to 50 nM
5,"COCCOc1nn(C)cc1Nc1ncc(-c2ccc(CC(=O)Nc3cc(C4(C(F)(F)F)CC4)on3)c(F)c2)cn1 [P-148, 2-[2-fluoro-4-[2-[[3-(2-methoxyethoxy)-1-methylpyrazol-4-yl]amino]pyrimidin-5-yl]phenyl]-N-[5-[1-(trifluoromethyl)cyclopropyl]isoxazol-3-yl]acetamide]",10 to 50 nM
6,"COc1nn(C)cc1Nc1ncc(-c2ccc(CC(=O)Nc3cc(C4(C(F)(F)F)CC4)on3)c(F)c2)c(C)n1 [P-124, 2-[2-fluoro-4-[2-[(3-methoxy-1-methylpyrazol-4-yl)amino]-4-methyl-pyrimidin-5-yl]phenyl]-N-[5-[1-(trifluoromethyl)cyclopropyl]isoxazol-3-yl] acetamide]",10 to 50 nM
7,"CCn1cnc(Nc2ncc(-c3ccc(CC(=O)Nc4cc(C5(C(F)(F)F)CC5)on4)c(F)c3)cn2)c1 [P-068, 2-[4-[2-[(1-ethylimidazol-4-yl)amino]pyrimidin-5-yl]-2-fluorophenyl]-N-[5-[1-(trifluoromethyl)cyclopropyl]isoxazol-3-yl]acetamide]",10 to 50 nM
8,"CCc1n[nH]cc1Nc1ncc(-c2ccc(CC(=O)Nc3cc(C4(C(F)(F)F)CC4)on3)c(F)c2)cn1 [P-214, 2-(4-(2-((3-ethyl-1H-pyrazol-4-yl)amino)pyrimidin-5-yl)-2-fluorophenyl)-N-(5-(1-(trifluoromethyl)cyclopropyl)isoxazol-3-yl)acetamide]",10 to 50 nM
9,"CCn1nccc1Nc1ncc(-c2ccc(CC(=O)Nc3cc(C4(C(F)(F)F)CC4)on3)c(F)c2)cn1 [P-103, 2-[4-[2-[(2-ethylpyrazol-3-yl)amino]pyrimidin-5-yl]-2-fluorophenyl]-N-[5-[1-(trifluoromethyl)cyclopropyl]isoxazol-3-yl]acetamide]",10 to 50 nM
10,"Cc1nn(C)cc1Nc1ncc(-c2ccc(CC(=O)Nc3cc(C4(C(F)(F)F)CC4)on3)c(F)c2)c(Cl)n1 [P-157, 2-[4-[4-chloro-2-[(1,3-dimethylpyrazol-4-yl)amino]pyrimidin-5-yl]-2-fluoro-phenyl]-N-[5-[1-(trifluoromethyl)cyclopropyl]isoxazol-3-yl]acetamide]",10 to 50 nM
11,"Cn1cnc(Nc2ncc(-c3ccc(CC(=O)Nc4cc(C5(C(F)F)CC5)on4)c(F)c3)cn2)c1 [P-184, N-[5-[1-(difluoromethyl)cyclopropyl]isoxazol-3-yl]-2-[2-fluoro-4-[2-[(1-methylimidazol-4-yl)amino]pyrimidin-5-yl]phenyl] acetamide]",10 to 50 nM
12,"Cc1nn(C)cc1Nc1ncc(-c2ccc(CC(=O)Nc3cc(C4(C(F)(F)F)CC4)on3)c(F)c2)c(C)n1 [P-116, 2-[4-[2-[(1,3-dimethylpyrazol-4-yl)amino]-4-methyl-pyrimidin-5-yl]-2-fluorophenyl]-N-[5-[1-(trifluoromethyl)cyclopropyl]isoxazol-3-yl] acetamide]",10 to 50 nM
13,"COc1nn(C)cc1Nc1ncc(-c2ccc(CC(=O)Nc3cc(C4(C(F)(F)F)CC4)on3)c(F)c2)c(OC)n1 [P-123, 2-[2-fluoro-4-[4-methoxy-2-[(3-methoxy-1-methyl-pyrazol-4-yl)amino]pyrimidin-5-yl]phenyl]-N-[5-[1-(trifluoromethyl)cyclopropyl]isoxazol-3-yl]acetamide]",10 to 50 nM
14,"COc1nn(C2CC2)cc1Nc1ncc(-c2ccc(CC(=O)Nc3cc(C4(C(F)(F)F)CC4)on3)c(F)c2)c(OC)n1 [P-136, 2-[4-[2-[(1-cyclopropyl-3-methoxypyrazol-4-yl)amino]-4-methoxy-pyrimidin-5-yl]-2-fluorophenyl]-N-[5-[1-(trifluoromethyl)cyclopropyl]isoxazol-3-yl]acetamide]",10 to 50 nM
15,"Cn1cnc(Nc2ncc(-c3ccc(CC(=O)Nc4cc(C5(C)CC5)no4)c(F)c3)cn2)c1 [P-112, 2-[2-fluoro-4-[2-[(1-methylimidazol-4-yl)amino]pyrimidin-5-yl]phenyl]-N-[3-(1-methylcyclopropyl)isoxazol-5-yl]acetamide]",10 to 50 nM
16,"CC(O)c1nn(C)cc1Nc1ncc(-c2ccc(CC(=O)Nc3cc(C4(C(F)(F)F)CC4)on3)c(F)c2)cn1 (stereo not drawn) [P-114, 2-[2-fluoro-4-[2-[[3-(1-hydroxyethyl)-1-methylpyrazol-4-yl]amino]pyrimidin-5-yl]phenyl]-N-[5-[1-(trifluoromethyl)cyclopropyl]isoxazol-3-yl]acetamide]",10 to 50 nM
17,"COc1cc(Nc2ncc(-c3ccc(CC(=O)Nc4cc(C5(C(F)(F)F)CC5)on4)c(F)c3)cn2)n(C)n1 [P-164, 2-[2-fluoro-4-[2-[(5-methoxy-2-methyl-pyrazol-3-yl)amino]pyrimidin-5-yl]phenyl]-N-[5-[1-(trifluoromethyl)cyclopropyl]isoxazol-3-yl]acetamide]",10 to 50 nM
18,"Cc1cc(C(=O)N(C)C)ccc1Nc1ncc(-c2ccc(CC(=O)Nc3cc(C4(C(F)(F)F)CC4)on3)c(F)c2)cn1 [P-113, 4-[[5-[3-fluoro-4-[2-oxo-2-[[5-[1-(trifluoromethyl)cyclopropyl]isoxazol-3-yl]amino]ethyl]phenyl]pyrimidin-2-yl]amino]-N,N,3-trimethyl-benzamide]",10 to 50 nM
